In assay [1] the test system is Plasmodium falciparum. Nature of the assay: Antimalarial activity as Plasmodium falciparum DNA by PicoGreen microfluorimetry. The class given is functional, organism-based.
For assay [2], the system named is Mycobacterium tuberculosis. Briefly: Antitubercular activity against Mycobacterium tuberculosis H37Rv at 6.25 ug/ml. The class given is functional, organism-based.
Assay [3] deals with Cyclin-dependent kinase 1/cyclin B1 (Homo sapiens) (UniProt P06493+P14635). Nature of the assay: Inhibition of Cdc2/cyclin B. The class given is protein-complex assay.
The test system of assay [4] is M-phase inducer phosphatase (Cdc25). Briefly: Inhibition of Cdc25.
Assay [5] deals with MCF. Briefly: Cytotoxicity against human MCF cells at 100 uM. The class given is functional, cell-based.
In assay [6] the test system is NCI-H460. Nature of the assay: Cytotoxicity against human NCI-H460 cells at 100 uM. The class given is functional, cell-based.
Assay [7] has as its system SF-268. Briefly: Cytotoxicity against human SF268 cells at 100 uM. It counts as functional, cell-based.

Values after ≈ are worked out from the molar mass of the structure shown. Active and inactive are the calls of the source. The rule behind the calls is not given here. A value given as a limit tells only on which side of the number the result lay.

Cyclin-dependent kinase 1/cyclin B1 (Homo sapiens), sequence (P06493 whole entry, looked up): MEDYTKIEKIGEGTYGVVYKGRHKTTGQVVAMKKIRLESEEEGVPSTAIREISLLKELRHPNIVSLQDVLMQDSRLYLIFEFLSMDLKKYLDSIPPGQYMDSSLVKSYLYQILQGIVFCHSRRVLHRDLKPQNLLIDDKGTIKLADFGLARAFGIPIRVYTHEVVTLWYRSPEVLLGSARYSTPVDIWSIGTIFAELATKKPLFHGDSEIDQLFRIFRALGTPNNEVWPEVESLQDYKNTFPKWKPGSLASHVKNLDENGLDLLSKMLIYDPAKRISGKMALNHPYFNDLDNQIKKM
Cyclin-dependent kinase 1/cyclin B1 (Homo sapiens), sequence (P14635 whole entry, looked up): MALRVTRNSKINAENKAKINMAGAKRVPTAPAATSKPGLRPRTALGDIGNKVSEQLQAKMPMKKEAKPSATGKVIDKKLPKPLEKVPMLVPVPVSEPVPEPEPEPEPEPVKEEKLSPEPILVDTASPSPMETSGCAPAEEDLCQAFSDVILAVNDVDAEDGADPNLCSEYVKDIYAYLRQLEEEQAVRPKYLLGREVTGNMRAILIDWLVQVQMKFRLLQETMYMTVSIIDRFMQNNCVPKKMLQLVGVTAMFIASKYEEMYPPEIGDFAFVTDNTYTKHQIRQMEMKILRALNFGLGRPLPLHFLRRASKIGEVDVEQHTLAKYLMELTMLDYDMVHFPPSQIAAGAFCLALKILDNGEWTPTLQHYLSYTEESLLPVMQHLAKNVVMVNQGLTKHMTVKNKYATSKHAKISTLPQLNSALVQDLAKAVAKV

For `CC(C)[C@@H]1CC[C@](C)(O)[C@H]2C3C[C@@]4(C)CCC[C@](C)(O4)C(O3)[C@@H]12`, in assay [1], the half-maximal inhibitory concentration (IC50) came out at 16 mg/L (≈ 49.6 µM).

Take `CO[C@@H]1CC[C@]2(C)OC(=O)[C@H](C)C3CC[C@@](C)(OC(C)=O)[C@H]4C(C[C@@]1(C)O)OC2[C@@H]34` (some centres not stated): the result in assay [2], in assay [3] and in assay [4] was inactive.

In the case of `C=C1CC2OC3[C@H]4C(CC[C@@](C)(OC(=O)CCC)[C@@H]24)[C@@H](C)C(=O)O[C@@]3(C)CC[C@H]1OO` (some centres not stated) [BRIARELLIN D HYDROPEROXIDE], in assay [1], the concentration for half-maximal inhibition (IC50) is 9 mg/L (≈ 20.6 µM).

`C=C1CC2OC3[C@H]4C(CC[C@@](C)(OC(=O)CCC)[C@@H]24)[C@@H](C)C(=O)O[C@@]3(C)CC[C@H]1O` (some centres not stated) [BRIARELLIN D] came in with a half-inhibitory concentration (IC50) in assay [1] of 13 mg/L (≈ 30.9 µM). Moreover, the outcome in assay [5], in assay [6], in assay [7], in assay [2], in assay [3] and in assay [4] was inactive.

As for `CC(=O)O[C@]1(C)CCC2[C@@H]3C4OC(C/C(C)=C\CC[C@]4(C)OC(=O)[C@@H]2C)[C@@H]31` (some centres not stated) [BRIARELLIN J], the IC50 in assay [1] was > 50 mg/L.

`C=C1CC2OC3[C@H]4C(CC[C@@](C)(OC(C)=O)[C@@H]24)[C@@H](C)C(=O)O[C@@]3(C)CC[C@H]1OO` (some centres not stated) [BRIARELLIN K HYDROPEROXIDE] showed an IC50 in assay [1] of 9 mg/L (≈ 22 µM).

The compound `C=C1CC2OC3[C@H]4C(CC[C@@](C)(OC(C)=O)[C@@H]24)[C@@H](C)C(=O)O[C@@]3(C)CC[C@H]1O` (some centres not stated) [BRIARELLIN K] displayed a half-maximal inhibitory concentration (IC50) in assay [1] of 15 mg/L (≈ 38.2 µM). The result in assay [5], in assay [6], in assay [7], in assay [2], in assay [3] and in assay [4] was inactive.

In assay [1], `C=C1CC2OC3[C@H]4C(CC[C@@](C)(OC(=O)CCC)[C@@H]24)[C@@H](C)C(=O)O[C@@]3(C)CC[C@H]1OC(C)=O` (some centres not stated) [BRIARELLIN L] showed an IC50 of 8 mg/L (≈ 17.3 µM).

`CC(=O)O[C@]1(C)CCC2[C@@H]3C4OC(C[C@@](C)(O)[C@H](O)CC[C@]4(C)OC(=O)[C@@H]2C)[C@@H]31` (some centres not stated) [BRIARELLIN M] registered an IC50 in assay [1] of 22 mg/L (≈ 53.6 µM).

Turning to `CCCC(=O)O[C@]1(C)CCC2[C@@H]3C4OC(C[C@@](C)(O)[C@H](O)CC[C@]4(C)OC(=O)[C@@H]2C)[C@@H]31` (some centres not stated) [BRIARELLIN O], in assay [1], the IC50 was 24 mg/L (≈ 54.7 µM).

On to `CCCC(=O)O[C@]1(C)CCC2[C@@H]3C4OC(C[C@@](C)(O)[C@H](OC)CC[C@]4(C)OC(=O)[C@@H]2C)[C@@H]31` (some centres not stated) [BRIARELLIN P], for which, in assay [1], it took 14 mg/L (≈ 30.9 µM) to reach half-maximal inhibition (IC50).

The compound `CC(=O)O[C@@]1(C)CC[C@@H](C(C)C)[C@@H]2C3OC(C[C@@]4(C)CCC[C@]3(C)O4)[C@@H]21` [POLYANTHELLIN A] displayed an IC50 in assay [1] of 16 mg/L (≈ 43.9 µM). Moreover, in assay [2], the outcome was inactive.
